Data reported in publication PMC11744668, “2-Cyanopyrimidine-Containing Molecules for N-Terminal Selective Cyclization of Phage-Displayed Peptides” (ACS Chemical Biology, 2025).
Entries after “also recorded” stand apart in the source; their conditions may differ.

What was measured:
[1] = tested on: phages (12mer phagemid library); assay: Phage infectivity (toxicity) assay, colony-forming unit assay; details: 50–200 μM linker, 22 or 37 °C, 3 or 24 h, 1 mM TCEP; cfu assay, n = 3
Procedure: For all experiments, phages were quantified via a colony-forming unit assay. In this assay, serial dilutions of the phage solution were prepared in 2× YT media, and 10 μL of each dilution was added to 90 μL of log-phase E. coli ER2738. Following the addition of the phage dilutions, the culture was incubated at 37 °C for 45 min, and then 10 μL was spotted in triplicate onto agar selection plates containing either 100 μg/mL ampicillin and 10 μg/mL tetracycline, which were incubated at 37 °C overnight. The following day, colonies in each spot were counted, and this number was used to calculate the number of colony-forming units in the solution.
The purified 12mer phagemid library in binding buffer was incubated with 1 mM TCEP at 37 °C for 30 min. The reduced phages were then reacted with linkers (pCAmCP or mCAmCP) or DMSO equivalents at varying concentrations (50, 100, and 200 μM) and temperatures (22 or 37 °C) for varying times (3 or 24 h). Following incubation under the various conditions, the phage solutions were then titered by using the previously described colony-forming unit assay.

[2] = tested on: CA5C phages (N-terminal cysteines displayed on pIII); assay: Biotin pulldown (capture) assay of CA5C phages; details: 100 μM linker, RT; Biotin-CBT, streptavidin beads; vs control phage AAKAA; n = 3
From the text: Following the characterization of the linkers for efficient cyclization of peptides, we then looked to characterize pCAmCP and mCAmCP for reactivity toward phage proteins. Some previously developed linkers that generate macrocyclic peptide libraries on phage hinder phage infectivity, which is likely from modifying cysteines within phage coat proteins.[26]−[28] To test if this occurred in the novel linkers, we performed toxicity assays that reacted the phages with different concentrations of linker (50–200 μM), temperatures (22 or 37 °C), and reaction times (3 or 24 h). […] We expressed phages with a CA5C peptide on the N-terminus of pIII. […] Following the precipitation of the phages, they were again reduced with TCEP and were incubated with a Biotin-CBT compound to label any unreacted N-terminal cysteines with biotin, allowing for phage capture on streptavidin beads (Figure 4B). […] Comparison with capture levels of unreacted phages indicated at least 80% and 70% reactivity of pCAmCP and mCAmCP with the CA5C phages, respectively. […]
The purified CA5C phages (10^11 to 10^12 cfu, 98 μL) in binding buffer were incubated with 1 mM TCEP at 37 °C for 30 min. […] Percent phages captured was calculated by (phages input – phages in supernatant)/phages input × 100.

## N#Cc1nccc(NC(=O)CCl)n1 [mCAmCP, 2-chloro-N-(2-cyanopyrimidin-4-yl)acetamide]
[1]
  phage toxicity (in words): No toxicity was observed under any of the conditions tested; also recorded: without hindering infection
[2]
  percent of phages captured after linker reaction (in words): reduced to levels similar to those of a control phage that lacked N-terminal cysteines

## N#Cc1ncc(NC(=O)CCl)cn1 [pCAmCP, 2-chloro-N-(2-cyanopyrimidin-5-yl)acetamide]
[1]
  phage toxicity (in words): No toxicity was observed under any of the conditions tested; also recorded: without hindering infection
[2]
  percent of phages captured after linker reaction (in words): reduced to levels similar to those of a control phage that lacked N-terminal cysteines
